# Read-outs that look alike come from different tables or passages of the source.
# Experiments:
# Format in all cases: cell-based, human
# [1] = test system: IL-6; experiment: IL-6 assay (ELISA) in Ad5-wt-ER infected HAECT-1 cells (IL-1β induced); settings: for Emax: HAECT1, relative to maximal inhibition observed with E2, read-out: IL-6 Efficacy; for IL-6 Efficacy: relative to maximal inhibition observed with E2
# Description: (§1) After four hours, cells were washed with EBM-BSA and incubated overnight in the same medium. […] After two hours, cells were washed and incubated at 34° C. for 1 hour. […] Control (no ER infection) cells were processed as above without Ad5-wt-hERα virus infection. […] Cells were subsequently washed with 300 μl of Dulbecco's phosphate buffered saline and lysed in 50 μl of Cell Culture Lysis Reagent (Promega). Luciferase was determined on a Wallac Victor^2 Luminometer (Gaithersburg, Md.) using 10 μl of lysate and mixing with 100 lμof Promega Luciferase Assay reagent. […] For IC50 and EC50 calculations, mean IL-6, luciferase or CK values versus log10 of the compound concentration were fitted to a four parameter logistic equation. The IC50/EC50 value, ‘Hill slope’, upper and lower limits of the curve were iteratively estimated.
# [2] = test system: creatine kinase; experiment: Creatine kinase assay in Ad5-wt-ER infected HAECT-1 cells; settings: for EC50 / Emax: Homo sapiens; for EC50: HAECT1, CK stimulation, N/O = activity not observed at concentrations tested, read-out: CK IC50; for Emax: HAECT1, relative to maximal stimulation observed with E2, read-out: CK Efficacy; for CK Efficacy: relative to maximal stimulation observed with E2
# Description: as §1
# [3] = test system: ER/Nf-kB; experiment: ER/NF-κB luciferase reporter assay in Ad5-wt-ER infected HAECT-1 cells (IL-1β induced); settings: for ER/Nf-kB Efficacy: relative to maximal inhibition observed with E2
# Description: as §1
SMILES,"IC50 ([1]; Homo sapiens, HAECT1) [µM]",EC50 [2] [µM],Emax ([1]; Homo sapiens) [%],Emax [2] [%],also measured
"C[C@H]1c2cccn2-c2ccc(Br)cc2N1C(=O)c1cccc(O)c1 [107 (S), 3-{[(4S)-7-bromo-4-methylpyrrolo[1,2-a]quinoxalin-5(4H)-yl]carbonyl}phenol]",1.06,,66,,
"CC[C@H]1c2cccn2-c2ccc(Br)cc2N1C(=O)c1ccc(O)cc1 [111 (S), 4-{[(4S)-7-bromo-4-ethylpyrrolo[1,2-a]quinoxalin-5(4H)-yl]carbonyl}phenol]",1.09,,65,,
"CC(C)(C)[C@@H]1c2cccn2-c2ccc(Br)cc2N1C(=O)c1cccc(O)c1 [115 (R), 3-{[(4R)-7-bromo-4-tert-butylpyrrolo[1,2-a]quinoxalin-5(4H)-yl]carbonyl}phenol]",0.647,,82,,
"CC[C@H]1c2cccn2-c2ccc(Cl)cc2N1C(=O)c1ccc(O)cc1O [125 (S), 4-{[(4S)-7-chloro-4-ethylpyrrolo[1,2-a]quinoxalin-5(4H)-yl]carbonyl}benzene-1,3-diol]",1.1,0.068,81,15,
"CC[C@H]1c2cccn2-c2ccc(F)cc2N1C(=O)c1cccc(O)c1 [127 (S), 3-{[(4S)-4-ethyl-7-fluoropyrrolo[1,2-a]quinoxalin-5(4H)-yl]carbonyl}phenol]",1.33,0.033,41,33,
"C[C@H]1c2cccn2-c2ccc(F)cc2N1C(=O)c1cccc(O)c1 [131 (S), 3-{[(4S)-4-methyl-7-fluoropyrrolo[1,2-a]quinoxalin-5(4H)-yl]carbonyl}phenol]",1.46,,69,,
"CC1c2ccc(F)n2-c2cc(F)c(F)cc2N1S(=O)(=O)c1ccc(O)cc1 (centres unmarked) [Example 13, 4-[(1,7,8-trifluoro-4-methylpyrrolo[1,2-a]quinoxalin-5-(4H)-yl)sulfonyl]phenol]",,,,,IC50 [3]: 0.02 µM; ER/Nf-kB Efficacy [3]: 104%
"CC1(C)c2cccn2-c2cc(F)c(F)cc2N1S(=O)(=O)c1ccc(O)cc1 [Example 15, 4-[(7,8-difluoro-4,4-dimethylpyrrolo[1,2-a]quinoxalin-5-(4H)-yl)sulfonyl]phenol]",,,,,IC50 [3]: 0.15 µM; ER/Nf-kB Efficacy [3]: 105%
"CCC1c2ccc(F)n2-c2ccc(F)cc2N1S(=O)(=O)c1ccc(O)cc1 (centres unmarked) [Example 23, 4-[(4-ethyl-1,7-difluoropyrrolo[1,2-a]quinoxalin-5-(4H)-yl)sulfonyl]phenol]",,,,,IC50 [1]: 0.0066 µM; IL-6 Efficacy [1]: 162%; CK Efficacy [2]: 52%
"CCC1c2cccn2-c2ccc(F)cc2N1S(=O)(=O)c1ccc(O)c(Cl)c1 (centres unmarked) [Example 31, 2-chloro-4-[(4-ethyl-7-fluoropyrrolo[1,2-a]quinoxalin-5-(4H)-yl)sulfonyl]phenol]",,,,,IC50 [3]: 0.364 µM; ER/Nf-kB Efficacy [3]: 104%
"Cc1cc(S(=O)(=O)N2c3cc(F)ccc3-n3cccc3C2C)ccc1O (centres unmarked) [Example 51, 4-[(7-fluoro-4-methylpyrrolo[1,2-a]quinoxalin-5-(4H)-yl)sulfonyl]-2-methylphenol]",,,,,IC50 [3]: 0.155 µM; ER/Nf-kB Efficacy [3]: 66%
"CC1c2cccn2-c2ccc(Br)cc2N1S(=O)(=O)c1ccc(O)cc1 (centres unmarked) [Example 52, 4-[(7-bromo-4-methylpyrrolo[1,2-a]quinoxalin-5-(4H)-yl)sulfonyl]phenol]",,,,,IC50 [3]: 0.011 µM; ER/Nf-kB Efficacy [3]: 100%
"CCC1c2cccn2-c2ccc(C(F)(F)F)cc2N1S(=O)(=O)c1ccc(O)cc1 (centres unmarked) [Example 56, 4-{[4-ethyl-7-(trifluoromethyl)pyrrolo[1,2-a]quinoxalin-5-(4H)-yl]sulfonyl}phenol]",,,,,IC50 [3]: 0.079 µM; ER/Nf-kB Efficacy [3]: 107%
"CCC1c2cccn2-c2cc(F)c(F)cc2N1S(=O)(=O)c1ccc(OS(N)(=O)=O)cc1 (centres unmarked) [Example 105, 4-{4-ethyl-7,8-difluoropyrrolo[1,2-a]quinoxalin-5(4H)-yl]sulfonyl}phenyl sulfamate]",,,,,IC50 [1]: 0.002 µM; IL-6 Efficacy [1]: 116%; CK Efficacy [2]: 49%

# Further compounds by falling IC50 ([1]; Homo sapiens, HAECT1), results first:
"IC50 ([1]; Homo sapiens, HAECT1) [µM]",EC50 [2] [µM],SMILES,Emax ([1]; Homo sapiens) [%],Emax [2] [%],also measured
0.606,,"C[C@H]1c2cccn2-c2ccc(F)cc2N1C(=O)c1ccc(O)cc1 [123 (S), 4-{[(4S)-7-fluoro-4-methylpyrrolo[1,2-a]quinoxalin-5(4H)-yl]carbonyl}phenol]",47,,
0.455,,"CC(C)(C)[C@H]1c2cccn2-c2ccc(Br)cc2N1C(=O)c1cccc(O)c1 [115 (S), 3-{[(4S)-7-bromo-4-tert-butylpyrrolo[1,2-a]quinoxalin-5(4H)-yl]carbonyl}phenol]",94,,
0.441,,"CC(C)(C)C1c2cccn2-c2ccc(Br)cc2N1C(=O)c1cccc(O)c1 (centres unmarked) [Example 114, 3-[(7-bromo-4-tert-butylpyrrolo[1,2-a]quinoxalin-5(4H)-yl)carbonyl]phenol]",38,,
0.369,,"CCC1c2cccn2-c2ccc(Br)cc2N1C(=O)c1ccc(O)cc1 (centres unmarked) [Example 110, 4-[(7-bromo-4-ethylpyrrolo[1,2-a]quinoxalin-5(4H)-yl)carbonyl]phenol]",78,,
0.207,,"CC(C)(C)C1c2cccn2-c2ccc(Br)cc2N1C(=O)c1ccc(O)cc1 (centres unmarked) [Example 116, 4-[(7-bromo-4-tert-butylpyrrolo[1,2-a]quinoxalin-5(4H)-yl)carbonyl]phenol]",90,,
0.179,,"C[C@@H]1c2cccn2-c2ccc(F)cc2N1C(=O)c1cccc(O)c1 [131 (R), 3-{[(4R)-4-methyl-7-fluoropyrrolo[1,2-a]quinoxalin-5(4H)-yl]carbonyl}phenol]",103,,
0.152,0.207,"CCC1c2cccn2-c2ccc(Br)cc2N1C(=O)c1cccc(O)c1 (centres unmarked) [Example 112, 3-[(7-bromo-4-ethylpyrrolo[1,2-a]quinoxalin-5(4H)-yl)carbonyl]phenol]",88,21,
0.101,,"CC[C@H]1c2cccn2-c2ccc(F)cc2N1C(=O)c1ccc(O)cc1 [119 (S), 4-{[(4S)-4-ethyl-7-fluoropyrrolo[1,2-a]quinoxalin-5(4H)-yl]carbonyl}phenol]",79,,
0.072,0.064,"CC[C@H]1c2cccn2-c2ccc(F)cc2N1C(=O)c1ccc(O)cc1O [121 (S), 4-{[(4S)-4-ethyl-7-fluoropyrrolo[1,2-a]quinoxalin-5(4H)-yl]carbonyl}benzene-1,3-diol]",95,32,
0.064,,"CC[C@@H]1c2ccc(C#N)n2-c2ccc(F)cc2N1C(=O)c1ccc(O)cc1 [Example 128, (4R)-4-ethyl-7-fluoro-5-(4-hydroxybenzoyl)-4,5-dihydropyrrolo[1,2-a]quinoxaline-1-carbonitrile]",111,,
0.053,0.018,"CC1c2cccn2-c2ccc(Br)cc2N1C(=O)c1ccc(O)cc1 (centres unmarked) [Example 108, 4-[(7-bromo-4-methylpyrrolo[1,2-a]quinoxalin-5(4H)-yl)carbonyl]phenol]",118,7,
0.046,0.117,"CC[C@@H]1c2cccn2-c2ccc(Br)cc2N1C(=O)c1ccc(O)cc1 [111 (R), 4-{[(4R)-7-bromo-4-ethylpyrrolo[1,2-a]quinoxalin-5(4H)-yl]carbonyl}phenol]",87,40,
0.042,0.398,"CC1c2cccn2-c2ccc(Br)cc2N1C(=O)c1ccc(O)cc1O (centres unmarked) [Example 109, 4-[(7-bromo-4-methylpyrrolo[1,2-a]quinoxalin-5(4H)-yl)carbonyl]benzene-1,3-diol]",128,40,
0.029,0.636,"CC[C@H]1c2ccc(C#N)n2-c2ccc(F)cc2N1C(=O)c1ccc(O)cc1 [Example 129, (4S)-4-ethyl-7-fluoro-5-(4-hydroxybenzoyl)-4,5-dihydropyrrolo[1,2-a]quinoxaline-1-carbonitrile]",-77,-7,
0.01,,"CC1c2cccn2-c2ccc(Br)cc2N1C(=O)c1cccc(O)c1 (centres unmarked) [Example 106, 3-[(7-bromo-4-methylpyrrolo[1,2-a]quinoxalin-5(4H)-yl)carbonyl]phenol]",54,,
0.0095,0.025,"CCC1c2cccn2-c2ccc(Br)cc2N1C(=O)c1ccc(O)cc1O (centres unmarked) [Example 113, 4-[(7-bromo-4-ethylpyrrolo[1,2-a]quinoxalin-5(4H)-yl)carbonyl]benzene-1,3-diol]",101,28,
0.009,0.033,"CC(C)(C)C1c2cccn2-c2ccc(Br)cc2N1C(=O)c1ccc(O)cc1O (centres unmarked) [Example 117, 4-[(7-bromo-4-tert-butylpyrrolo[1,2-a]quinoxalin-5(4H)-yl)carbonyl]benzene-1,3-diol]",90,42,
0.008,0.011,"CC[C@@H]1c2cccn2-c2ccc(F)cc2N1C(=O)c1ccc(O)cc1 [119 (R), 4-{[(4R)-4-ethyl-7-fluoropyrrolo[1,2-a]quinoxalin-5(4H)-yl]carbonyl}phenol]",95,27,
0.0016,0.013,"CC[C@@H]1c2cccn2-c2ccc(F)cc2N1C(=O)c1ccc(O)cc1O [121 (R), 4-{[(4R)-4-ethyl-7-fluoropyrrolo[1,2-a]quinoxalin-5(4H)-yl]carbonyl}benzene-1,3-diol]",108,36,

# — US7563793B2, “Pyrrolo[1,2-a]quinoxalin-5-(4H)-yl)sulfonyls and carbonyls and their use as estrogenic agents” (Wyeth, priority 2004, dated 2009)
